Entries after “also recorded” stand apart in the source; their conditions may differ. Where a SMILES comes first, the peptide text is derived from it. Bridges are numbered along the chain shown (N, C = ends). [ ]: non-standard residue; d: D form. Hyp = O=C(O)[C@@H]1C[C@@H](O)CN1
Experiments:
[1] = system: isolated mouse phrenic-hemidiaphragm nerve-muscle preparations; settings: for IC50: pH 7.4
mice [2] = settings: mouse, in vivo, ip
hemidiaphragm muscle = system: hemidiaphragm muscle; set-up: species or system mouse
[3] = target: Torpedo muscle-type nicotinic acetylcholine receptors (nAChRs) (Tetronarce californica, UniProt P02710+P02714+P02718); type: binding
Sequence of Torpedo muscle-type nicotinic acetylcholine receptors (nAChRs) (P02710 whole entry, looked up): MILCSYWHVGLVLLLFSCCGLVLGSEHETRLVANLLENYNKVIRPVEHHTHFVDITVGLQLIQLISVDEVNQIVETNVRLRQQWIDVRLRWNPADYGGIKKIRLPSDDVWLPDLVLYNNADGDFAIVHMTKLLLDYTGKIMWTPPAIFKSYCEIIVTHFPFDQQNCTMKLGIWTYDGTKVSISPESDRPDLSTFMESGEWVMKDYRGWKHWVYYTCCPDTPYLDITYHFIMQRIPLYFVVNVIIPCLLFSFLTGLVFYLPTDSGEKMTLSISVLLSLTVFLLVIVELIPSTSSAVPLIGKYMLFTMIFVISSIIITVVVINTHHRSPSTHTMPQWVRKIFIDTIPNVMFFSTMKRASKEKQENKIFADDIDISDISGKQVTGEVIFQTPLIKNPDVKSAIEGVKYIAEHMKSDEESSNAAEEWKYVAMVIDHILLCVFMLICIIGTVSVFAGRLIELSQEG
Sequence of Torpedo muscle-type nicotinic acetylcholine receptors (nAChRs) (P02714 whole entry, looked up): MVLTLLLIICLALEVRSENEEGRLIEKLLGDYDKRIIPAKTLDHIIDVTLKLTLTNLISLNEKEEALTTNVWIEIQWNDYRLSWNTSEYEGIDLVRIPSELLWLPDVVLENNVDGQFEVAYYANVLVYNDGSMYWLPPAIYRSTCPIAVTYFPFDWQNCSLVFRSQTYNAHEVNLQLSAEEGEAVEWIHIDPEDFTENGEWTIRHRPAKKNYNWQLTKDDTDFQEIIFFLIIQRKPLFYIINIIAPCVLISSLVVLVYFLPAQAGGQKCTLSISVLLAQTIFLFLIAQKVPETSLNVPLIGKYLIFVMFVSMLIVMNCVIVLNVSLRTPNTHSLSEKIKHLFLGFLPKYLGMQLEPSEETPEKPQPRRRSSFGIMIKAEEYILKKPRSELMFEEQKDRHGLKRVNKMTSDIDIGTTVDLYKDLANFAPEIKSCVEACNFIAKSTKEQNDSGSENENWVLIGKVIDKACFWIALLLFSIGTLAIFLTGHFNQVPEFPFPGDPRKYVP
Sequence of Torpedo muscle-type nicotinic acetylcholine receptors (nAChRs) (P02718 whole entry, looked up): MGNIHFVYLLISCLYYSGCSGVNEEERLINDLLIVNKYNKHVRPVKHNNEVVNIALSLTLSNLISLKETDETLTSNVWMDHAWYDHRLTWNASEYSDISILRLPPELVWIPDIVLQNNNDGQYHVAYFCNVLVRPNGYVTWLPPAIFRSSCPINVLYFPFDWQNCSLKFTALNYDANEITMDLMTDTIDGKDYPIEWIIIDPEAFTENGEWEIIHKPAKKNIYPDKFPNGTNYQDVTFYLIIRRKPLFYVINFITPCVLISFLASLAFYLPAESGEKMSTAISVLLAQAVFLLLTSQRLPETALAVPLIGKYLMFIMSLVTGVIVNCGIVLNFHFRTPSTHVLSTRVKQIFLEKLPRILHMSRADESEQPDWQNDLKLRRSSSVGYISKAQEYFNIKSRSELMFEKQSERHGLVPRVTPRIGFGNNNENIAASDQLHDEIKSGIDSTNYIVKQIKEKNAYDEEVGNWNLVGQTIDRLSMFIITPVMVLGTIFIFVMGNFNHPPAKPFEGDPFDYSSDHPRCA

mice [4] = settings: mouse, in vivo

Compound	maximal block of contraction [1]	potency relative to αC-conotoxin PrXA [1]	IC50 [1] [µM]	D/T (dead/treated mice) (mice [2])	effect on contractility force under direct electrical stimulation (hemidiaphragm muscle)	inhibition of muscle contraction [1]	time to full block of muscle contraction [1] [min]	inhibition of [^125I]-α-bungarotoxin binding [3]	mice lethality (mice [4]) [%]	time to death (mice [4]) [min]	IC50 (mice death) (mice [4]; ip) [µg/g]
CC[C@H](C)[C@H](NC(=O)[C@H](Cc1ccc(O)cc1)NC(=O)[C@H](Cc1c[nH]cn1)NC(=O)[C@@H]1CSSC[C@H](NC(=O)[C@@H]2CCCN2C(=O)[C@H](CCCNC(=N)N)NC(=O)[C@H](CC(C)C)NC(=O)[C@H](CC(=O)O)NC(=O)[C@@H]2CCCN2C(=O)[C@H](CCCCN)NC(=O)CNC(=O)CN)C(=O)N[C@@H](Cc2c[nH]cn2)C(=O)N2CCC[C@H]2C(=O)N2CCC[C@H]2C(=O)N1)C(=O)N1CCC[C@H]1C(=O)N[C@@H](CCCNC(=N)N)C(=O)N1CCC[C@H]1C(=O)N[C@@H](CCCCN)C(=O)N1CCC[C@H]1C(=O)N[C@@H](CCCNC(=N)N)C(=O)O [Waglerin 1] (H-GGKPDLRPCHPPCHYIPRPKPR-OH; disulfide 9-13)	full block of contraction	twofold less potent	0.058 ± 0.002	–	–	–	–	–	–	–	–
CC[C@H](C)[C@H](NC(=O)CNC(=O)[C@H](Cc1ccc(O)cc1)NC(=O)[C@@H](N)[C@@H](C)O)C(=O)N[C@@H](Cc1ccc(O)cc1)C(=O)N[C@@H](CC(=O)O)C(=O)N[C@@H](C)C(=O)N[C@@H](CCCCN)C(=O)N1CCC[C@H]1C(=O)N1C[C@H](O)C[C@H]1C(=O)N[C@@H](Cc1ccccc1)C(=O)N[C@@H](CO)C(=O)N[C@H]1CSSC[C@@H](C(=O)N[C@H](C(=O)N[C@@H](CC(C)C)C(=O)N2CCC[C@H]2C(=O)N2C[C@H](O)C[C@H]2C(=O)N[C@@H](CC(N)=O)C(=O)N[C@@H](CC(C)C)C(=O)N[C@@H](CCCNC(=N)N)C(=O)N2C[C@H](O)C[C@H]2C(=O)N[C@@H](CCCCN)C(=O)N[C@@H](Cc2ccccc2)C(=O)N[C@@H](CCCCN)C(=O)N[C@@H](CCC(=O)O)C(N)=O)C(C)C)NC(=O)CNC(=O)CNC(=O)[C@H](CCCNC(=N)N)NC(=O)[C@H](CC(C)C)NC(=O)CNC(=O)[C@H](C)NC1=O [αC-conotoxin PrXA] (H-TYGIYDAKP[Hyp]FSCAGLRGGCVLP[Hyp]NLR[Hyp]KFKE-NH2; disulfide 13-20)	–	–	0.023 ± 0.002	3/3	did not alter muscle contractility force; also recorded: Lack of toxin effect on direct muscle stimulation	concentration- and time-dependent inhibition of muscle contraction	15	fully inhibited	–	–	–
CC[C@H](C)[C@H](NC(=O)[C@H](Cc1ccc(O)cc1)NC(=O)[C@H](Cc1cnc[nH]1)NC(=O)[C@@H]1CSSC[C@H](NC(=O)[C@@H]2CCCN2C(=O)[C@H](CCCNC(=N)N)NC(=O)[C@H](CC(C)C)NC(=O)[C@H](CC(=O)O)NC(=O)[C@@H]2CCCN2C(=O)[C@H](CCCCN)NC(=O)CNC(=O)CN)C(=O)N[C@@H](Cc2cnc[nH]2)C(=O)N2CCC[C@H]2C(=O)N2CCC[C@H]2C(=O)N1)C(=O)N1CCC[C@H]1C(=O)N[C@@H](CCCNC(=N)N)C(=O)N1CCC[C@H]1C(=O)N[C@@H](CCCCN)C(=O)N1CCC[C@H]1C(=O)N[C@@H](CCCNC(=N)N)C(=O)O [Waglerin 1] (H-GGKPDLRPCHPPCHYIPRPKPR-OH; disulfide 9-13)	–	–	–	–	–	–	–	–	100	≤ 4.7 ± 0.7	0.7

Source: paper PMC5543128 (Scientific Reports, 2017)
